Consider two molecules from US20110165271A1, “ANTITUMORAL TERPENOID PHARMACEUTICAL COMPOSITION 'ABISILIN' EXHIBITING ANGIOGENESIS-INHIBITING ACTION” (priority 2008, published 2011).

The TGI is the reduction of tumour growth relative to the control group.

Experiment [1] concerns metastatic colorectal cancer. As to conditions: patients bearing metastatic colorectal cancer; increase from 15.6 months; cited from earlier work.
Experiment [2] concerns breast adenocarcinoma Ca-755. Put plainly: Antitumor activity on transplantable tumor. The format is in vivo, mice. As to conditions: Abisilin 50 mg/kg per os days 2-11 and/or Cisplatin 5 mg/kg once day 2. How it is done:
(§1) The mice and rats were purchased from the Experimental Animal Division of the Blokhin Russian Oncologic Center, the Russian Academy of Medicinal Sciences, and maintained on an ordinary food ration.
(§2) Sunflower seed oil was used as the solvent for the pharmaceutical.
(§3) Cisplatin purchased from Bristol-Myers Squibb was used in the experiments.
(§4) Abisilin was administered to animals orally every day for 10 days, or in the following schedule: on the 2nd and 6th days or on the 2nd and 11th days. […] In the combined treatment, Abisilin was administered to mice orally every day for 10 days, beginning 48 h after tumor transplantation, in a dose of 50 mg/kg; the antitumor agent Cisplatin was administered once intraperitonially (ip) in a dose of 5 mg/kg. Animals bearing the aforementioned tumors were monitored until they died. The antitumor effects of the pharmaceutical were judged from percentage tumor growth inhibition (TGI, %) in the experimental animals against control animals.
(§5) The statistical significance of the antitumor effect against the untreated control was determined by the Fisher-Student test. The difference between the compared groups was regarded as statistically reliable when p≦0.05.

Experiment [3] has as its system melanoma B-16. Briefly: Antitumor activity on transplantable tumor. The format is in vivo, mice. As to conditions: Abisilin 50 mg/kg per os days 2-11 and/or Cisplatin 5 mg/kg once day 2. As for the experimental part: as §1, §2, §3, §4, §5
In experiment [4] the test system is colon adenocarcinoma (CAC). Put plainly: Antitumor activity on transplantable tumor. It is filed as in vivo, mice. How it is done:
as §1, §2, §3, §4, §5

Consider “Avastin: monoclonal antibody drug binding vascular endothelial growth factor (VEGF); active substance bevacizumab”, for which, in experiment [1], the total survival period is 20.3 months.
On to `N.N.[Cl][Pt][Cl]` [Cisplatin], for which the TGI in experiment [2] (day 7) is on record as 86%; in experiment [2] (day 11) it was 62%; in experiment [2] (day 14), 52%; in experiment [2] (day 18) it was 43%; in experiment [2] (day 22), 39%; in experiment [3] (day 7) it was 80%. For the same molecule, the TGI in experiment [3] (day 9) is given as 83%; in experiment [3] (day 11) it was 65%; in experiment [3] (day 17) it was 19%; in experiment [4] (day 7, Abisilin 50 mg/kg per os days 2-11 and/or Cisplatin 5 mg/kg once day 2), 0%; in experiment [4] (day 12, Abisilin 50 mg/kg per os days 2-11 and/or Cisplatin 5 mg/kg once day 2), 22%; in experiment [4] (day 21, Abisilin 50 mg/kg per os days 2-11 and/or Cisplatin 5 mg/kg once day 2), 14%. Besides, in experiment [4] (day 22, Cisplatin 5 mg/kg once day 2), the TGI was determined as 35%. In experiment [4] (monotherapy, Abisilin 50 mg/kg, Cisplatin 5 mg/kg), the “sensitivity of the tumor in monotherapy” value is on record as “insensitive”.
